Patent publication US8383642B2, “Spiropiperidine compounds” (Eli Lilly and Company, priority 2009, dated 2013)

Key:
PPARδ = molecular target: T1, PPARδ (Homo sapiens, UniProt Q03181); test: PPARδ binding assay (SPA); conditions: concentrations up to 10 μM
T1 construct: made in house; host or cells: HEK293 (cell lysates)
T1 sequence (Q03181 1-441): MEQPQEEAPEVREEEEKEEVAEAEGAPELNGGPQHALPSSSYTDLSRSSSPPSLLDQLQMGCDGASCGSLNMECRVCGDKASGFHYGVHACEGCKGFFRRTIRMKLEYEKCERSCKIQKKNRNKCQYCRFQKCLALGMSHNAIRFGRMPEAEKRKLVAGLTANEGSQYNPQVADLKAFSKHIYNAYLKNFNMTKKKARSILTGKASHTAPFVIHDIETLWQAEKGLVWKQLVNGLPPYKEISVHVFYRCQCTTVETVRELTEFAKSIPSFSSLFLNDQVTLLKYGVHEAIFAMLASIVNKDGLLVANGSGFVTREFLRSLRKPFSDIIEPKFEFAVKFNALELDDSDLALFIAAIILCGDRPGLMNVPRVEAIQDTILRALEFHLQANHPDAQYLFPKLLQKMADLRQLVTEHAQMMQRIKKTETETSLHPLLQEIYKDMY
T1 sequence (P19793 1-462 partner): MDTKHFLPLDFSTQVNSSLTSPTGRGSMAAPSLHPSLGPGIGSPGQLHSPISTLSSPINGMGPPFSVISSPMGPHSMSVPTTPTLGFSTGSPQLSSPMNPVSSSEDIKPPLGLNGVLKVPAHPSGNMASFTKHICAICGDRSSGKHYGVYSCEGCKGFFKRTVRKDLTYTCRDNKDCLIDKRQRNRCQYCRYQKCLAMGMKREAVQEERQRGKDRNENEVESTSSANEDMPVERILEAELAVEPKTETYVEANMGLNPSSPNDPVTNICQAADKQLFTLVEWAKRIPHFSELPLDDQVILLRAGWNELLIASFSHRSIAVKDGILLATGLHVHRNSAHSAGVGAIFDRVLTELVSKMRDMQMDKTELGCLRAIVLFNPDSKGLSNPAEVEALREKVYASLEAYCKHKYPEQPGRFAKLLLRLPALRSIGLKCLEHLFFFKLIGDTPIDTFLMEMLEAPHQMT
Procedure: (§1) Because GPR40 is known to be activated by ligands to PPARγ exemplified compounds are examined in PPARα, PPARδ, and PPARγ binding and functional assays to determine the selectivity of exemplified compounds for GPR40. Compounds exemplified herein are tested essentially as described below for PPAR binding and generally have binding values greater than 1000 nM with 10 μM concentrations of test compound and are thus considered negative for PPAR activity.
(§2) Binding affinities of compounds for the PPAR α, δ, and γ receptors are assessed using Scintillation Proximity Assay (SPA) technology. Biotinylated oligonucleotide Direct Repeat 2 (DR2) is used for binding the receptors to Yttrium silicate streptavidin-coated SPA beads. […] Non-specific binding is determined in the presence of 10,000 nM of the unlabeled PPAR α/δ dual agonist reference compound for the alpha and delta receptor assays and the PPARγ agonist reference compound for the gamma receptor assay. The binding reaction (100 μl per well in a 96 well [Costar 3632] plate) is incubated for 10 h and counted disintegration per minutes (dpm) on a Wallac Microbeta. Receptor binding affinity (IC50) for the compounds is determined by fitting an 11 point concentration-response curve with a 4-parameter logistic equation. Ki, is determined from the IC50 using the Cheng-Prussoff equation and Kd determined by saturation binding. […]

PPARγ = molecular target: T2, PPARγ (Homo sapiens, UniProt P37231); test: PPARγ binding assay (SPA); parameters: made in house; host or cells: HEK293 (cell lysates); conditions: concentrations up to 10 μM
T2 sequence (P37231 1-505): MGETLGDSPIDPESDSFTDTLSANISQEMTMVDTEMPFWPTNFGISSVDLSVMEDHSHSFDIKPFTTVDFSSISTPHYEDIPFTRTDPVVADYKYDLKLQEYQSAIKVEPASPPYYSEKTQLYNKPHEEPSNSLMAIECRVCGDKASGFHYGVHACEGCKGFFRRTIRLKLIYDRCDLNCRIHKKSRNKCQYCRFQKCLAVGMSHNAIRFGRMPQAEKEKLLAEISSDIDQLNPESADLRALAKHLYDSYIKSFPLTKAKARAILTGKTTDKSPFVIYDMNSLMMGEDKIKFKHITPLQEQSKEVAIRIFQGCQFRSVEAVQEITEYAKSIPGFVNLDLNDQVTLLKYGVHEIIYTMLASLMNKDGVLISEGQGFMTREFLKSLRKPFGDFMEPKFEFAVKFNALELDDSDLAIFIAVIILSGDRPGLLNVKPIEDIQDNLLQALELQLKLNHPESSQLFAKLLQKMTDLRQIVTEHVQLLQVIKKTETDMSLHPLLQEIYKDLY
T2 sequence (P19793 1-462 partner): T1 sequence (P19793 1-462 partner)
Procedure: as §1, §2

human GPR40 = molecular target: T3, human GPR40 (Homo sapiens, UniProt O14842); test: Calcium Flux Primary Assay; assay type: cell-based
T3 construct: expressed in transfected cells; host or cells: HEK293
T3 sequence (O14842 whole entry): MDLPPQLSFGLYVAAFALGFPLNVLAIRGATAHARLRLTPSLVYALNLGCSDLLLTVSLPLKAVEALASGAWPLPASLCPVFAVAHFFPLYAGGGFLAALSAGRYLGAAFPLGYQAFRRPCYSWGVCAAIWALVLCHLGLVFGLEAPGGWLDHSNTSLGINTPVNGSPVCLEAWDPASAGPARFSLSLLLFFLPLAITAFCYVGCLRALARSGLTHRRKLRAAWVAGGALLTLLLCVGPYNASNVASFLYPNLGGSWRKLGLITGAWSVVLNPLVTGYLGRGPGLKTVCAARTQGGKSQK
Procedure: HEK293 cells over expressing the human GPR40 cDNA maintained in Dulbecco's modified Eagle's medium with F12 medium in 3:1 ratio supplemented with 10% FBS and 800 μg/ml geneticin at 37° C. and 5% CO2 are employed for the study. Agonist assays are performed using a Calcium 4 Dye assay kit (Molecular Devices) in the presence (0.1%) or absence of fatty acid free BSA in the assay buffer (1×HBSS (Hank's Balanced Salt Solution) & 20 mM HEPES (4-(2-hydroxyethyl)-1-piperazineethanesulfonic acid). Receptor activation is measured as an increase in intracellular calcium using the Fluorometric Imaging Plate Reader (FLIPR). Maximum change in fluorescence over the base line is used to determine agonist response. EC50 (effective concentration at half the maximal response) value of the compound is calculated using Excel Fit software (version 4; IDBS) by plotting concentration vs relative fluorescence units (RFUs).

- binding detected (PPARδ): no binding is detected
- binding detected (PPARγ): no binding is detected
- EC50 (human GPR40; HEK293 cells over expressing human GPR40, FLIPR calcium): 186 nM
- efficacy (human GPR40; maximal response compared to the natural ligand, linoleic acid): 91+/−10%
SMILES: CC#C[C@@H](CC(=O)O)c1ccc(OCc2ccc(CN3CCC4(C=Cc5ccccc54)CC3)cc2)cc1 [Example 1, (3S)-3-(4-{[4-(1′H-Spiro[indene-1,4′-piperidin]-1′-ylmethyl)benzyl]oxy}phenyl)hex-4-ynoic acid]
